Results from patent US20170283440A1, “CARM1 INHIBITORS AND USES THEREOF” (Epizyme, Inc., priority 2014, published 2017).

test system: asymmetric di-methyl PABP1 in RKO cells; experiment: RKO methylation assay (In Cell Western for asymmetric di-methyl PABP1); format: cell-based; conditions: 48 hours incubation, read-out: Cellular IC50
Text: RKO adherent cells were purchased from ATCC (American Type Culture Collection), Manassas, Va., USA. DMEM/Glutamax medium, penicillin-streptomycin, heat inactivated fetal bovine serum, 0.05% trypsin and D-PBS were purchased from Life Technologies, Grand Island, N.Y., USA. Odyssey blocking buffer, 800CW goat anti-rabbit IgG (H+L) antibody, and Licor Odyssey infrared scanner were purchased from Licor Biosciences, Lincoln, Nebr., USA. Asymmetric di-methyl PABP1 antibody was purchased from Cell Signaling Technology, Danvers, Mass., USA. Methanol was purchased from VWR, Franklin, Mass., USA. 10% Tween 20 was purchased from KPL, Inc., Gaithersburg, Md., USA. Paraformaldehyde (PFA) was purchased from EM Sciences. DRAQ5 was purchased from Biostatus Limited, Leicestershire, UK.
RKO adherent cells were maintained in growth medium (DMEM/Glutamax medium supplemented with 10% v/v heat inactivated fetal bovine serum and 100 units/mL penicillin-streptomycin) and cultured at 37° C. under 5% CO2.
Compound (100 nL) from a 96-well source plate was added directly to 384 well cell plate. Plates were incubated at 37° C., 5% CO2 for 48 hours. After two days of incubation, plates were brought to room temperature outside of the incubator for ten minutes and blotted on paper towels to remove cell media. Cells were fixed for 20 minutes at room temperature by adding 50 ul of 8% PFA followed by aspiration of supernatant with the Biotek EL406 plate washer. Cells were then permeabilized by addition of 50 μL of ice cold 100% methanol directly to each well and incubated for 30 min at room temperature. After 30 min, plates were transferred to a Biotek EL406 plate washer and washed 2 times with 100 μL per well of wash buffer (IX PBS). Next 60 μL per well of Odyssey blocking buffer (Odyssey Buffer with 0.1% Tween 20 (v/v)) were added to each plate and incubated 1 hour at room temperature. Blocking buffer was removed and 20 μL per well of primary antibody was added (asymmetric-methyl PABP1) diluted 1:400 in Odyssey buffer with 0.1% Tween 20 (v/v)) and plates were incubated overnight (16 hours) at 4° C. Plates were washed 5 times with 100 μL per well of wash buffer. Next 20 μL per well of secondary antibody was added (1:800 800CW goat anti-rabbit IgG (H+L) antibody, 1:2000 DRAQ5 in Odyssey buffer with 0.1% Tween 20 (v/v)) and incubated for 1 hour at room temperature. The plates were washed 5 times with 100 μL per well wash buffer then 2 times with 100 μL per well of water. Plates were allowed to dry at room temperature then imaged on the Licor Odyssey machine which measures integrated intensity at 700 nm and 800 nm wavelengths. Both 700 and 800 channels were scanned.
First, the ratio for each well was determined by:
Each plate included fourteen control wells of DMSO only treatment (minimum inhibition) as well as fourteen control wells for maximum inhibition treated with 20 μM of a reference compound. The average of the ratio values for each control type was calculated and used to determine the percent […] for each test well in the plate. Reference compound was serially diluted three-fold in DMSO for a total of nine test concentrations, beginning at 20 μM.
Percent inhibition was determined and IC50 curves were generated using triplicate wells per concentration of compound.

Row | Structure (SMILES) | IC50 [µM]
1 | CC(C)n1ncc2c(N3CCOCC3)cc(-c3cccc(OCC(O)CN)c3)nc21 (stereo not shown) [Example 11-1] | 10 to 20

same assay, conditions: Homo sapiens, 48 hours incubation, read-out: Cellular IC50

Row | Structure (SMILES) | IC50 [µM]
2 | CCOC(=O)Nc1cc(-c2cccc(OCC(O)CN)c2)nc2c1cnn2C(C)C (stereo not shown) [Example 17-1] | > 20
3 | CNCC(O)COc1cccc(-c2cc(NC3CC3)c3cnn(C(C)C)c3n2)c1 (stereo not shown) [Example 18-9] | > 20
4 | CC(C)n1ncc2c(NC3CCOCC3)cc(-c3cccc(OCC(O)CN)c3)nc21 (stereo not shown) [Example 19-1] | > 20
5 | CNCC(O)COc1cccc(-c2cc(N3CCOCC3)c3cnn(C(C)C)c3n2)c1 (stereo not shown) [Example 20-1] | > 20
6 | CNCC(O)COc1cccc(-c2cc(NC(=O)N(C)C)c3cnn(C(C)C)c3n2)c1 (stereo not shown) [Example 21-1] | > 20
7 | CNCC(O)COc1cccc(-c2cc(NCCCCN)c3cnn(C(C)C)c3n2)c1 (stereo not shown) [Example 22-1] | > 20
8 | CNCC(O)COc1cccc(-c2cc(NC)c3cnn(C(C)C)c3n2)c1 (stereo not shown) [Example 22-9] | > 20
9 | CNCC(O)COc1cccc(-c2cc(NCC(=O)OC)c3cnn(C(C)C)c3n2)c1 (stereo not shown) [Example 23-1] | > 20
10 | CNCC(O)COc1cccc(-c2cc(Nc3ccccn3)c3cnn(C(C)C)c3n2)c1 (stereo not shown) [Example 24-1] | > 20
11 | CC(C)n1ncc2c(NCc3cccnc3)cc(-c3cccc(OCC(O)CN)c3)nc21 (stereo not shown) [Example 25-1] | > 20
12 | CC(C)n1ncc2c(NCc3ccncc3)cc(-c3cccc(OCC(O)CN)c3)nc21 (stereo not shown) [Example 26-1] | > 20
13 | CC(C)n1ncc2c(NCC3CCOCC3)cc(-c3cccc(OCC(O)CN)c3)nc21 (stereo not shown) [Example 30-1] | > 20
14 | CNCC(O)COc1cccc(-c2cc(NCCCCCN)c3cnn(C(C)C)c3n2)c1 (stereo not shown) [Example 32-1] | > 20
15 | CC(C)n1ncc2c(NCc3cccc(O)c3)cc(-c3cccc(OCC(O)CN)c3)nc21 (stereo not shown) [Example 35-1] | > 20
16 | Cc1c(CNc2cc(-c3cccc(OCC(O)CN)c3)nc3c2cnn3C(C)C)cnn1C (stereo not shown) [Example 37-1] | > 20
17 | CC(C)n1ncc2c(N[C@H]3CO[C@@H]4OCC[C@@H]43)cc(-c3cccc(OCC(O)CN)c3)nc21 (stereo partly shown) [Example 38-1] | > 20
18 | CNCC(O)COc1cccc(-c2cc(NCC3CCOCC3)c3cnn(C(C)C)c3n2)c1 (stereo not shown) [Example 41-1] | > 20

Row | Structure (SMILES) | IC50 [µM]
19 | CC(C)n1ncc2c(N(C)CC3CCOCC3)cc(-c3cccc(OCC(O)CN)c3)nc21 (stereo not shown) [Example 42-1] | > 20
20 | CNCC(O)COc1cccc(-c2cc(NCCCCCCN)c3cnn(C(C)C)c3n2)c1 (stereo not shown) [Example 43-1] | > 20
21 | CNCC(O)COc1cccc(-c2cc(N[C@H]3CO[C@@H]4OCC[C@@H]43)c3cnn(C(C)C)c3n2)c1 (stereo partly shown) [Example 47-1] | > 20
22 | CC(C)n1ncc2c(NC(=O)NC3CCOCC3)cc(-c3cccc(OCC(O)CN)c3)nc21 (stereo not shown) [Example 49-1] | > 20
23 | CC(C)n1ncc2c(NCc3cnc4ccccn34)cc(-c3cccc(OCC(O)CN)c3)nc21 (stereo not shown) [Example 50-1] | > 20
24 | CC(C)n1ncc2c(NC(=O)OCc3ccccc3)cc(-c3cccc(OCC(O)CN)c3)nc21 (stereo not shown) [Example 51-1] | > 20
25 | CNCC(O)COc1cccc(-c2cc(N3CCC(C(=O)OC)CC3)c3cnn(C(C)C)c3n2)c1 (stereo not shown) [Example 52-1] | > 20
26 | CNCC(O)COc1cccc(-c2cc(NCc3cnc4ccccn34)c3cnn(C(C)C)c3n2)c1 (stereo not shown) [Example 53-1] | > 20
27 | CNCC(O)COc1cccc(-c2cc(NC(=O)OCc3ccccc3)c3cnn(C(C)C)c3n2)c1 (stereo not shown) [Example 54-1] | > 20
28 | COc1nc(C)cc(C)c1CNc1cc(-c2cccc(OCC(O)CN)c2)nc2c1cnn2C(C)C (stereo not shown) [Example 55-1] | > 20
29 | CNCC(O)COc1cccc(-c2cc(NCCNC(=O)c3cccnc3)c3cnn(C(C)C)c3n2)c1 (stereo not shown) [Example 56-1] | > 20
30 | CNCC(O)COc1cccc(-c2cc(NCCNC(=O)c3ccn(C)n3)c3cnn(C(C)C)c3n2)c1 (stereo not shown) [Example 58-1] | > 20
31 | CNCC(O)COc1cccc(-c2cc(NCCCNC(=O)c3cccnc3)c3cnn(C(C)C)c3n2)c1 (stereo not shown) [Example 59-1] | > 20
32 | CNCC(O)COc1cccc(-c2cc(NCCCNC(=O)c3ccn(C)n3)c3cnn(C(C)C)c3n2)c1 (stereo not shown) [Example 60-1] | > 20
33 | CNCC(O)COc1cccc(-c2cc(NCCCCNC(=O)c3cccnc3)c3cnn(C(C)C)c3n2)c1 (stereo not shown) [Example 61-1] | > 20
34 | CNCC(O)COc1cccc(-c2cc(NCCCCNC(=O)c3ccn(C)n3)c3cnn(C(C)C)c3n2)c1 (stereo not shown) [Example 62-1] | > 20
35 | CNCC(O)COc1cccc(-c2cc(NCCCCCNC(=O)c3cccnc3)c3cnn(C(C)C)c3n2)c1 (stereo not shown) [Example 63-1] | > 20

The next lines start with the values.

Row | IC50 [µM] | Structure (SMILES)
36 | > 20 | CNCC(O)COc1cccc(-c2cc(NC(=O)NC3CCOCC3)c3cnn(C(C)C)c3n2)c1 (stereo not shown) [Example 2-1]
37 | 10 to 20 | CC(C)n1ncc2c(N3CCOCC3)cc(-c3cccc(OCC(O)CN)c3)nc21 (stereo not shown) [Example 3-1]
38 | > 20 | CNC(=O)Nc1cc(-c2cccc(OCC(O)CN)c2)nc2c1cnn2C(C)C (stereo not shown) [Example 8-1]
39 | > 20 | CNCC(O)COc1cccc(-c2cc(NCCN)c3cnn(C(C)C)c3n2)c1 (stereo not shown) [Example 9-1]
40 | > 20 | COC(=O)Nc1cc(-c2cccc(OCC(O)CN)c2)nc2c1cnn2C(C)C (stereo not shown) [Example 10-1]
41 | > 20 | CC(C)n1ncc2c(N3CCOCC3)cc(-c3cccc(OC[C@@H](O)CN)c3)nc21 [Example 12-1]
42 | > 20 | CC(C)n1ncc2c(NC(=O)N(C)C)cc(-c3cccc(OCC(O)CN)c3)nc21 (stereo not shown) [Example 14-1]
43 | > 20 | CNCC(O)COc1cccc(-c2cc(N(C)C3CCOC3)n3ncc(C(C)C)c3n2)c1 (stereo not shown) [Example 14-6]
44 | > 20 | CNCC(O)COc1cccc(-c2cc(NCCCN)c3cnn(C(C)C)c3n2)c1 (stereo not shown) [Example 15-1]
45 | > 20 | CC(C)n1ncc2c(NC3CC3)cc(-c3cccc(OCC(O)CN)c3)nc21 (stereo not shown) [Example 15-9]
46 | 10 to 20 | CNCC(O)COc1cccc(-c2cc(NC(=O)OC)c3cnn(C(C)C)c3n2)c1 (stereo not shown) [Example 16-1]
47 | > 20 | COC(=O)CNc1cc(-c2cccc(OCC(O)CN)c2)nc2c1cnn2C(C)C (stereo not shown) [Example 16-9]
48 | 10 to 20 | CC(C)n1ncc2c(N(C)C3CCOCC3)cc(-c3cccc(OCC(O)CN)c3)nc21 (stereo not shown) [Example 28-1]
49 | 10 to 20 | CNCC(O)COc1cccc(-c2cc(NC3CCOCC3)c3cnn(C(C)C)c3n2)c1 (stereo not shown) [Example 29-1]
50 | 10 to 20 | CNCC(O)COc1cccc(-c2cc(N(C)c3ccccn3)c3cnn(C(C)C)c3n2)c1 (stereo not shown) [Example 33-1]
51 | 10 to 20 | CNCC(O)COc1cccc(-c2cc(NCc3ccccn3)c3cnn(C(C)C)c3n2)c1 (stereo not shown) [Example 34-1]
52 | 5 to 10 | CNCC(O)COc1cccc(-c2cc(N(C)C3CCOCC3)c3cnn(C(C)C)c3n2)c1 (stereo not shown) [Example 40-1]
53 | 10 to 20 | CNCC(O)COc1cccc(-c2cc(NCc3cnn(C)c3C)c3cnn(C(C)C)c3n2)c1 (stereo not shown) [Example 46-1]
54 | 10 to 20 | CNCC(O)COc1cccc(-c2cc(N(C)CC3CCOCC3)c3cnn(C(C)C)c3n2)c1 (stereo not shown) [Example 48-1]
55 | 10 to 20 | CNCC(O)COc1cccc(-c2cc(NCCCCCCNC(=O)c3cccnc3)c3cnn(C(C)C)c3n2)c1 (stereo not shown) [Example 65-1]
